What was measured:
[1] = total administration should not exceed; cited from earlier work
[2] = test system: Sprague Dawley Crl:CD(SD) rats; assay: Repeated daily oral gavage study in rats: hematology, serum iron, gross necropsy; type: in vivo; conditions: once per day oral gavage
Protocol: The test material solution or vehicle control was administered once per day by oral gavage administration, and individual dose volumes were calculated based on the most recent body weight data for each animal.
General health/mortality and moribundity checks were performed twice daily, and detailed clinical observations were performed on days 1, 8, and 15 prior to dosing. Hematology parameters were evaluated for all animals on days 1, 7, and 14. Blood collection for serum iron concentration evaluation was performed on these days as well, and blood samples were obtained via the orbital plexus while the animals were under light isoflurane anesthesia. All animals were subjected to complete gross necropsy examination at scheduled euthanasia.
Blood samples for hematology testing were collected in volumes of about 200 μL in tubes containing anticoagulant K2EDTA, and were evaluated for red blood cell count (RBC), hemoglobin concentration (Hb), hematocrit (Hct), mean corpuscular volume (MCV), mean corpuscular hemoglobin concentration (MCHC), mean corpuscular hemoglobin (MCH), reticulocyte count (Retic), red blood cell morphology, white blood cell count (WBC), neutrophil count (Neut), lymphocyte count (Lymph), monocyte count (Mono), eosinophil count (Eos), and basophil count (Baso). Serum iron was measured by taking about 1 mL blood samples in a serum separator tube.

[3] = cited from earlier work
[4] = versus ferrous sulfate and/or ferrous fumarate, Newton et al. 1980, Piccinni et al. 1982

Q: What does the source list for O=C([O-])/C=C/C(=O)[O-].[Fe+2] [ferrous fumarate]?
A: toxicity limits [1]: 200 to 250 mg/kg; immune response (segmented neutrophils, platelets, lymphocytes) ([2]; Group 2 500 mg Fe/kg, Group 3 250 + 250 mg Fe/kg, hematology days 1, 7, 14): about the same; gross internal findings at necropsy ([2]; Group 2 500 mg Fe/kg, Group 3 250 + 250 mg Fe/kg, scheduled euthanasia): body fat depletion, thyroid nodules, reddened mandibular lymph nodes, reddened stomach mucosa, small thymus, foci on the thymus, and dark fecal matter; serum iron levels ([2]; ferrous fumarate 500 mg Fe/kg (Group 2), ferrous fumarate 250 + PIC 250 mg Fe/kg (Group 3), blood on days 1, 7, 14): significant increases

Q: What does the source list for polysaccharide iron complex [PIC]?
A: efficacy at increasing hemoglobin and hematocrit values [3, 4]: equivalent efficacy; tolerability [3, 4]: better tolerated; gastrointestinal side effects ([3]; versus ferrous sulfate, Johnson et al., Niferex-150 in ESRD patients receiving EPOGEN): fewer gastrointestinal side effects
